Assays:
MMP-12 = MMP-12 (Homo sapiens, UniProt P39900); test: In vitro inhibition of MMP-12 proteolysis of fluorigenic peptide FP-1; format: biochemical; details: FP-1 substrate 10 μM, 20 minutes at room temperature
Protocol: In Vitro Evaluation of the Inhibitory Activity of the Compounds of the Invention on MMP-12:
(§1) The inhibitory activity of the compounds of formula (I) on metalloprotease-12 is evaluated by testing the capacity of the compounds of the invention to inhibit the proteolysis of a peptide that is an MMP-12 substrate.
The substrate peptide used (fluorigenic peptide-1: FP-1) in the test has the following sequence: Mca-Pro-Leu-Gly-Leu-Dap(Dnp)-Ala-Arg-NH2.
The inhibitory activity of a compound of formula (I) is expressed as the IC50 value, which represents the concentration of inhibitor for which a 50% inhibition of the metalloprotease is observed.
(§2) The reaction starts with the sequential addition of 41 μl of FP-1 substrate (final concentration of 10 μM) to a buffer solution of 50 mM of Tris-HCl and 10 mM of CaCl2, and containing 5 mM of hydroxamic acid and 5 μl of the enzyme diluted in a 0.005% Brij-35 buffer solution. The microplates are incubated for 20 minutes at room temperature.
(§3) The compounds of the invention are tested at concentrations ranging from 0.3 to 30 μM.
(§4) The measurement of the amount of proteolysis of the peptide substrate is monitored by means of a measurement of absorbance at 405 nm using a microplate spectrophotometer, at room temperature. The IC50 values are calculated from curves in which the percentage of the catalytic activity relative to the control is represented on the x-axis and the inhibitor concentration is represented on the y-axis.

MMP-13 = MMP-13 (Homo sapiens, UniProt P45452); test: MMP-12 test adapted to MMP-13; format: biochemical
Protocol: as §1, §2, §3, §4
The test described above for the inhibition of MMP-12 is adapted and used to determine the capacity of the compounds of formula (I) to inhibit the metalloproteases MMP-1, MMP-2, MMP-3, MMP-7, MMP-9, MMP-13 and MMP-14.

Sequence of MMP-12 (P39900 106-470): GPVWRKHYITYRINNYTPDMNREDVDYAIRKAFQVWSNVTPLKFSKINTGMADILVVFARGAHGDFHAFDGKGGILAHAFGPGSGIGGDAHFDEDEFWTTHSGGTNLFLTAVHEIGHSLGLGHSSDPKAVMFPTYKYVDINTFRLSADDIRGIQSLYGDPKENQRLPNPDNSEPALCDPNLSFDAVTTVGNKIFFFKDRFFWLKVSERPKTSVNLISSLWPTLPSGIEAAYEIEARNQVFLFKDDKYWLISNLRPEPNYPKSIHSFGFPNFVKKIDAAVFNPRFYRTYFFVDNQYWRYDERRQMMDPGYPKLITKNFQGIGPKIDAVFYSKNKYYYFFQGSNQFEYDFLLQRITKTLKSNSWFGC

| SMILES | IC50 (MMP-12) [µM] | IC50 (MMP-13) [µM] |
| --- | --- | --- |
| O=C(NC[C@H]1CC[C@H](C(=O)O)CC1)c1cc(-c2ccc(OC(F)(F)F)cc2)c(F)s1 [Example 1, 4-({[5-Fluoro-4-(4-trifluoromethoxyphenyl)thien-2-yl]carboxamido}-methyl)cyclohexanecarboxylic Acid] | 0.14 | 2.8 |
| CC(=O)c1ccc(-c2ccc(-c3cc(C(=O)NC[C@H]4CC[C@H](C(=O)O)CC4)sc3F)cc2)cc1 [Example 2, trans4-({[5-Fluoro-4-(4-[4-acetylphenyl]phenyl)thien-2-yl]carboxamido}methyl)cyclohexanecarboxylic Acid] | 0.007 | 0.038 |
| CC(=O)c1ccc(-c2ccc(-c3cc(C(=O)N[C@H](CC(=O)O)c4ccccc4)sc3F)cc2)cc1 [Example 3, 3-(R)-Phenyl-3-({5-fluoro-4-[4-(4-acetylphenyl)phenyl]thien-2 yl}carboxamido)-propanoic Acid] | 0.024 | 0.085 |

— patent US20050014817A1, “Fluorothiophene derivatives, process for preparing them and pharmaceutical compositions containing them” (Pfizer Inc, priority 2003, published 2005)
